Assay results published in publication PMC12197678, “Cvill6 and Cvill7: Potent and Selective Peptide Blockers of Kv1.2 Ion Channel Isolated from Mexican Scorpion Centruroides villegasi” (Toxins, 2025).

Legend:
Kv1.2 = details: ref [21],[22]; cited from earlier work
Text: The Kv1.2 ion channel, a member of voltage-gated potassium channels, is encoded by the KCNA2 gene. Kv1.2 is predominantly expressed in the central nervous system (CNS) abundantly in the cerebellum, hippocampus, and cortex. It plays a crucial role in action potential propagation, neuronal excitability, and synaptic transmission. Gain-of-function (GOF) mutations in KCNA2 cause increased Kv1.2 activity, resulting in excessive potassium conductance leading to neuronal hyperpolarization, and impairing normal brain function. A decade ago, Kv1.2 emerged as a key factor ...

hKv1.1 = biological target: T1, hKv1.1 (Homo sapiens, UniProt Q09470); experiment: cell-based; format: cell-based
T1 construct: host or cells: CHO cells, transient transfection (Lipofectamine 2000)
Protocol: (§1) Chinese hamster ovary (CHO) cells (generously provided by Yosef Yarden, Weizmann Institute of Science, Rehovot, Israel) or human embryonic kidney (HEK293) cells were cultured and maintained in Dulbecco’s modified Eagle medium (DMEM, Thermo Fisher Scientific, Waltham, MA, USA) supplemented with 2 mM L-glutamine, 10% fetal bovine serum (FBS), 100 µg/mL streptomycin, and 100 U/mL penicillin-g (Sigma-Aldrich, Budapest, Hungary) following standard culturing conditions [52]. For transient expression of ion channels, CHO cells were transfected using the Lipofectamine 2000 kit (Invitrogen, Waltham, MA, USA) following the manufacturer’s instructions with plasmids encoding specific ion channels, including hKv1.1 (KCNA1 gene), hKv1.2 (KCNA2 gene), and hKv1.5 (KCNA5 gene) in a pCMV6-AC-GFP vector (OriGene Technologies), hKCa2.2 (KCNN2 gene) in a pCDN3 plasmid (for this transfection a GFP containing plasmid was co-transfected, courtesy of Bernard Attali, Tel Aviv University, Tel Aviv, Israel), and hKCa3.1 (KCNN4 gene) in a pEGFP-C1 vector (a kind gift by H. Wulff, University of California, Davis, CA, USA). […] Electrophysiological recordings were typically conducted 24 to 48 h after transfection.
(§2) Whole-cell currents were recorded using the patch-clamp technique in voltage-clamp mode, following standard protocols [73]. […] Micropipettes were made from GC150F-7.5 borosilicate capillaries (Harvard Apparatus Co., Holliston, MA, USA) using a Sutter P2000 laser puller with tip resistance generally ranging from 3–6 MΩ in the bath solution. Only recordings with a leak current at the holding potential (Vh) of <10% of the peak current at the test potential were included in the data analysis. All recordings were performed at room temperature (20–25 °C). Control and test solutions were perfused to the cells via a gravity-driven micro-perfusion system and AutoMate Perfusion Pencil Multi-Barrel Manifold Tip (AutoMate Scientific, Berkeley, CA, USA), with an approximate flow rate of 200 µL/min, and the excess amount of bath solution was continuously removed from the recording chamber using vacuum suction.
(§3) The duration of depolarization pulses was 15 ms for Kv1.3 and 50 ms for Kv1.1 and Kv1.5. However, for Kv1.2, 15–500 ms-long pulses were used to achieve the saturated peak current due to the variable activation kinetics of this channel [74].

hKv1.3 = biological target: T2, hKv1.3 (Homo sapiens, UniProt P22001); experiment: cell-based; format: cell-based
T2 construct: peripheral blood mononuclear cells (PBMCs) were isolated from the healthy donor’s blood; endogenous in cells
Text: Therefore, we aimed to investigate the effects of Cvill6 and Cvill7 on voltage-gated K^+ ion channels. Among the tested ion channels there were four members from the Shaker-related human Kv1 family, hKv1.1, hKv1.2, hKv1.3, and hKv1.5 (Figure 3A–E), and one member of the human ether-a-go-go-related (hERG) cardiac K^+ channel hKv11.1 (hERG1, Figure 3F). For current recordings, Kv1.1, Kv1.2, and Kv1.5 were transiently expressed in CHO cells while for Kv11.1 a stable HEK293 cell line was used. To record Kv1.3 currents human peripheral T lymphocytes were activated with Phytohemagglutinin A (PHA) to boost Kv1.3 expression and Ca^2+-free intracellular solution to prevent the KCa3.1 channel opening. […] Appropriate voltage protocols were applied to record the K^+ currents from voltage-clamped cells in whole-cell configurations. Toxins were freshly dissolved in the bath solution supplemented with 0.1 mg/mL BSA and applied to the patched cells via a gravity-fed micro-perfusion system with an approximate flow rate of 200 µL/min.
To avoid toxin adsorption onto the plastic surfaces of the perfusion system, 0.1 mg/mL of bovine serum albumin (BSA, Sigma-Aldrich, Budapest, Hungary) was also added into all bath solutions prior to the patch-clamp assay.
Whole-cell currents were recorded using the patch-clamp technique in voltage-clamp mode, following standard protocols. […] Micropipettes were made from GC150F-7.5 borosilicate capillaries (Harvard Apparatus Co., Holliston, MA, USA) using a Sutter P2000 laser puller with tip resistance generally ranging from 3–6 MΩ in the bath solution. Only recordings with a leak current at the holding potential (Vh) of <10% of the peak current at the test potential were included in the data analysis. All recordings were performed at room temperature (20–25 °C). Control and test solutions were perfused to the cells via a gravity-driven micro-perfusion system and AutoMate Perfusion Pencil Multi-Barrel Manifold Tip (AutoMate Scientific, Berkeley, CA, USA), with an approximate flow rate of 200 µL/min, and the excess amount of bath solution was continuously removed from the recording chamber using vacuum suction.
The duration of depolarization pulses was 15 ms for Kv1.3 and 50 ms for Kv1.1 and Kv1.5. However, for Kv1.2, 15–500 ms-long pulses were used to achieve the saturated peak current due to the variable activation kinetics of this channel. […] KCa2.2 and KCa3.1 currents were recorded by applying 150 ms-long voltage ramps to +50 mV from −120 mV every 10 s; the Vh was set to −85 mV.
Before analysis, all current traces were digitally filtered using three-point boxcar smoothing and were corrected for ohmic leakage, only if required. […] Data points in the concentration–response curve represent the mean RCF values of three to six individual cells, with error bars denoting the standard error of the mean (SEM). The data points for each concentration were fitted using the Hill equation: RCF = IC50^H/(IC50^H + [toxin]^H), where IC50 is the dissociation constant, H represents the Hill coefficient, and [toxin] is the concentration of the toxin.
To study the binding kinetics of Cvill toxins, the peak current during the application of toxin at time point t (It) was normalized to the peak current (I0) before the toxin exposure (Inorm = It/I0) and plotted as a function of time.

hKv1.5 = format: cell-based, human
Protocol: Chinese hamster ovary (CHO) cells (generously provided by Yosef Yarden, Weizmann Institute of Science, Rehovot, Israel) or human embryonic kidney (HEK293) cells were cultured and maintained in Dulbecco’s modified Eagle medium (DMEM, Thermo Fisher Scientific, Waltham, MA, USA) supplemented with 2 mM L-glutamine, 10% fetal bovine serum (FBS), 100 µg/mL streptomycin, and 100 U/mL penicillin-g (Sigma-Aldrich, Budapest, Hungary) following standard culturing conditions [52]. For transient expression of ion channels, CHO cells were transfected using the Lipofectamine 2000 kit (Invitrogen, Waltham, MA, USA) following the manufacturer’s instructions with plasmids encoding specific ion channels, including hKv1.1 (KCNA1 gene), hKv1.2 (KCNA2 gene), and hKv1.5 (KCNA5 gene) in a pCMV6-AC-GFP vector (OriGene Technologies), hKCa2.2 (KCNN2 gene) in a pCDN3 plasmid (for this transfection a GFP containing plasmid was co-transfected, courtesy of Bernard Attali, Tel Aviv University, Tel Aviv, Israel), and hKCa3.1 (KCNN4 gene) in a pEGFP-C1 vector (a kind gift by H. Wulff, University of California, Davis, CA, USA). […] Electrophysiological recordings were typically conducted 24 to 48 h after transfection. […]
Whole-cell currents were recorded using the patch-clamp technique in voltage-clamp mode, following standard protocols [73]. […]

hKv1.2 = biological target: T3, hKv1.2 (Homo sapiens, UniProt P16389); experiment: Whole-cell patch-clamp, hKv1.2 current in transiently transfected CHO cells; format: cell-based; details: positive control
T3 construct: host or cells: CHO cells, transient transfection (Lipofectamine 2000)
T3 sequence (P16389 whole entry): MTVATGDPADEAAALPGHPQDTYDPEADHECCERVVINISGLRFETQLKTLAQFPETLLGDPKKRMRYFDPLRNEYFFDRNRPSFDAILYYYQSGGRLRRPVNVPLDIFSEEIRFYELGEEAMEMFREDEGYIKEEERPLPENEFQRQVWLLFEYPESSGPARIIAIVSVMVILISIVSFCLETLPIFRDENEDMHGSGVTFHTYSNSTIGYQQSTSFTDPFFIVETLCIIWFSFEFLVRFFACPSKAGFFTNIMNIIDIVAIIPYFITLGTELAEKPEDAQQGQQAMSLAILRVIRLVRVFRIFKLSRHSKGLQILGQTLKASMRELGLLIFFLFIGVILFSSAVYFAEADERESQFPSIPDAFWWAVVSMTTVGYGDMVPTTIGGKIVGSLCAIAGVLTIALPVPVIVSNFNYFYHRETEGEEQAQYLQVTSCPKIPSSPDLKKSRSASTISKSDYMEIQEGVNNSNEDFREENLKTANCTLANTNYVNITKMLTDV
Protocol: as §1, §2, §3

T1 sequence (Q09470 whole entry): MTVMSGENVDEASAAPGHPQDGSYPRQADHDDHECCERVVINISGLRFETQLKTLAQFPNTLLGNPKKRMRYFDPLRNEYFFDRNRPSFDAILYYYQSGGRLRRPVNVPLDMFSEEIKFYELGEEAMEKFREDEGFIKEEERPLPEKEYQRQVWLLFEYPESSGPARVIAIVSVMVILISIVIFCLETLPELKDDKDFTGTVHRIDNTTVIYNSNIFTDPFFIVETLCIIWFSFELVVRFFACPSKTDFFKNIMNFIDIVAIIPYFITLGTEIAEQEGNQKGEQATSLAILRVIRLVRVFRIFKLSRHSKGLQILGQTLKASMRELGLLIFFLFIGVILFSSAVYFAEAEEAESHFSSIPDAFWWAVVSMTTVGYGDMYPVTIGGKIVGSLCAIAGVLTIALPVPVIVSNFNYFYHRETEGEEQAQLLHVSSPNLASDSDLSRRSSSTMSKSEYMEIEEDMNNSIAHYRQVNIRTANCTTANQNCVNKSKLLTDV
T2 sequence (P22001 whole entry): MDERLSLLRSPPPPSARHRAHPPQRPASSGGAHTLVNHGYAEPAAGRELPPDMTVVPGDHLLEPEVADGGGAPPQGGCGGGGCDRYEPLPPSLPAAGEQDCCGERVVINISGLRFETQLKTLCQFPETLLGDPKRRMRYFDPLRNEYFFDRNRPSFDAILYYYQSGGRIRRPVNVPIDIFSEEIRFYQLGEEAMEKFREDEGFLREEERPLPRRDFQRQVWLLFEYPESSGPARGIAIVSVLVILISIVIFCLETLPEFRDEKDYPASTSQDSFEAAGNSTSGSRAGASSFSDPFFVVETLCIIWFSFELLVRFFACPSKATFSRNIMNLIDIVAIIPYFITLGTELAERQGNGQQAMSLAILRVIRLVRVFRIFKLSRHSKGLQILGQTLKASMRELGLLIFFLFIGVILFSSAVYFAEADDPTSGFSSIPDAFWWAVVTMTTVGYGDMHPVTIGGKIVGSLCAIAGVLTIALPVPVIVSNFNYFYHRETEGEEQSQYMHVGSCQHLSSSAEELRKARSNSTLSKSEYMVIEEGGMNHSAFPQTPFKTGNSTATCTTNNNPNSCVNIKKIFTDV

Nc1ccncc1 [4-aminopyridine]
effect on gain-of-function defects in patients with KCNA2-related encephalopathy (Kv1.2): can mitigate the gain-of-function defects in patients

CC[N+](CC)(CC)CC [TEA^+, tetraethylammonium chloride, reference compound]
inhibition of Kv1.1 by positive control (hKv1.1): fully reversible inhibitors
inhibition of Kv1.3 by positive control (hKv1.3): fully reversible inhibitors
inhibition of Kv1.5 by positive control (hKv1.5): fully reversible inhibitors

charybdotoxin [reference compound]
inhibition of Kv1.2 by positive control (hKv1.2): fully reversible inhibitors
